These results are taken from publication PMC6522510 (Nature Communications, 2019).

Where two headings read alike, the source gives them in different places. Square brackets hold non-standard residues; d marks the D form. Peptide text beside a SMILES is read from it. * marks the point of attachment. Sta = CC(C)C[C@H](N)[C@@H](O)CC(=O)O; Isovaleryl = CC(C)CC(=O)*

Among the test systems are CMK; M07e; CHRF288-11; MV4-11; MOLM-13; U937; ML-2; CMS.
Common to all, as to design: species or system AML cell lines (8); Primary HTS, single concentration about 10 uM, Cell Titer Glo viability; log10 luminescence, per cent inhibition relative to cycloheximide control
Holding throughout (conditions): 72 h, relative to cycloheximide control, log10 luminescence, inhibitor

As to `Cn1cc(C2=C(c3cn(-c4ccccc4)c4ccccc34)C(=O)NC2=O)c2ccccc21` [SJ000580977-1], the CMK %inh with CMK came out at 6.892%. For the same molecule, in the assay on M07e, the M07e %inh was -0.4981%. Also, the CHRF288-11 %inh with CHRF288-11 is 2.78%. Moreover, in the assay on MV4-11, the MV4-11 %inh was found to be 3.843%. For the same molecule, the MOLM-13 %inh in the assay on MOLM-13 was 2.403%. In addition, the U937 %inh in the assay on U937 came out at 0.1058%. Besides, the ML-2 %inh with ML-2 is -1.344%. Besides, the CMS %inh with CMS was found to be 0.9336%.
Regarding `COc1cc(Nc2ncc(-c3ccccc3)o2)cc(OC)c1` [SJ000573115-1, U21834/32/1], the CMK %inh with CMK is reported as 3.561%. Further, the M07e %inh in the assay with M07e was determined as 1.992%. Moreover, in the assay on CHRF288-11, the CHRF288-11 %inh is -9.037%. The MV4-11 %inh with MV4-11 came out at 75.56%. Further, in the assay on MOLM-13, the MOLM-13 %inh came to 74.91%. Further, in the assay with U937, the U937 %inh is recorded as 0.9564%. The ML-2 %inh with ML-2 is 2.252%. Besides, in the assay with CMS, the CMS %inh is -1.309%.
For `NCCCC[C@H](N[C@@H](CCc1ccccc1)C(=O)O)C(=O)N1CCC[C@H]1C(=O)O` [SJ000285890-4, LISINOPRIL], the CMK %inh in the assay with CMK (CMK %inh, 10 µM) stood at 2.277%. Moreover, the M07e %inh in the assay with M07e (M07e %inh, 10 µM) is given as -2.951%. In addition, the CHRF288-11 %inh in the assay on CHRF288-11 (CHRF288-11 %inh, 10 µM) is on record as -6.515%. In addition, the MV4-11 %inh in the assay on MV4-11 (MV4-11 %inh, 10 µM) was 2.293%. The MOLM-13 %inh with MOLM-13 (MOLM-13 %inh, 10 µM) is listed as -2.286%. Also, the U937 %inh in the assay with U937 (U937 %inh, 10 µM) worked out at 5.753%. Further, the ML-2 %inh with ML-2 (ML-2 %inh, 10 µM) is -0.08728%. For the same molecule, the CMS %inh with CMS (CMS %inh, 10 µM) is given as -0.4714%.
On to `CCn1cc(-c2ccnc3[nH]ccc23)c(-c2cccc(NC(=O)Nc3ccc(OCc4ccccc4)cc3)c2)n1` [SJ000573320-1, R11459/78/21], for which the CMK %inh in the assay with CMK was 77.69%. The M07e %inh in the assay on M07e turned out to be 13.09%. Also, the CHRF288-11 %inh in the assay on CHRF288-11 came out at 55.15%. In addition, in the assay with MV4-11, the MV4-11 %inh came out at 7.18%. Further, the MOLM-13 %inh in the assay with MOLM-13 is reported as 71.46%. Besides, in the assay on U937, the U937 %inh is given as 1.634%. In the assay on ML-2, the ML-2 %inh was 18.08%. Besides, in the assay with CMS, the CMS %inh was 4.452%.
As to `CC(C)CC(=O)N[C@H](C(=O)N[C@H](C(=O)N[C@@H](CC(C)C)[C@@H](O)CC(=O)N[C@@H](C)C(=O)N[C@@H](CC(C)C)[C@@H](O)CC(=O)O)C(C)C)C(C)C` [SJ000287258-4, PEPSTATIN A] (Isovaleryl-VV[Sta]A[Sta]-OH), the CMK %inh with CMK (CMK %inh, 10 µM) is given as -1.598%. In addition, the M07e %inh with M07e (M07e %inh, 10 µM) is listed as -0.4461%. In the assay on CHRF288-11 (CHRF288-11 %inh, 10 µM), the CHRF288-11 %inh is given as -1.709%. Besides, the MV4-11 %inh with MV4-11 (MV4-11 %inh, 10 µM) stood at 2.97%. The MOLM-13 %inh with MOLM-13 (MOLM-13 %inh, 10 µM) is reported as 0.9923%. The U937 %inh in the assay with U937 (U937 %inh, 10 µM) is on record as -1.362%. Further, in the assay with ML-2 (ML-2 %inh, 10 µM), the ML-2 %inh is -2.254%. Besides, in the assay with CMS (CMS %inh, 10 µM), the CMS %inh stood at 2.288%.
As for `CS(=O)(=O)N1CCC(n2c(=O)c(Oc3ccc(F)cc3F)cc3cnc(NC4CCOCC4)nc32)CC1` [SJ000580975-1], the CMK %inh in the assay with CMK was determined as 5.472%. Besides, in the assay with M07e, the M07e %inh is 0.9741%. Also, the CHRF288-11 %inh in the assay on CHRF288-11 is recorded as -0.8918%. Besides, the MV4-11 %inh in the assay on MV4-11 came to 2.449%. The MOLM-13 %inh in the assay on MOLM-13 was determined as 0.4331%. The U937 %inh in the assay on U937 is on record as 0.9443%. Besides, the ML-2 %inh with ML-2 is -0.9846%. Further, the CMS %inh with CMS was -1.205%.
Consider `O=C1NC(=NCCc2cccs2)S/C1=C\c1ccc2ncccc2c1` [SJ000581015-1], for which the CMK %inh in the assay on CMK amounted to 2.413%. Further, the M07e %inh with M07e worked out at 0.2412%. Moreover, in the assay on CHRF288-11, the CHRF288-11 %inh is on record as -3.354%. Moreover, in the assay on MV4-11, the MV4-11 %inh is reported as 1.469%. Moreover, the MOLM-13 %inh in the assay with MOLM-13 is 1.226%. In addition, in the assay with U937, the U937 %inh worked out at 4.783%. Also, the ML-2 %inh with ML-2 was 1.872%. In addition, the CMS %inh in the assay with CMS came to 2.886%.
Turning to `CC(C)C[C@H](N)C(=O)N[C@H](C(=O)N[C@H](C(=O)N[C@@H](Cc1ccc(O)cc1)C(=O)N1CCC[C@H]1C(=O)N[C@@H](Cc1c[nH]c2ccccc12)C(=O)N[C@H](C(=O)O)[C@@H](C)O)C(C)C)C(C)C` [SJ000556698-1, SPINORPHIN] (H-LVVYPWT-OH), the CMK %inh with CMK is 0.1545%. Also, in the assay with M07e, the M07e %inh was -3.453%. For the same molecule, the CHRF288-11 %inh in the assay with CHRF288-11 is recorded as -1.007%. Besides, the MV4-11 %inh in the assay with MV4-11 was -0.248%. In addition, the MOLM-13 %inh with MOLM-13 was -0.8143%. Moreover, in the assay on U937, the U937 %inh is listed as 0.1872%. In the assay with ML-2, the ML-2 %inh is recorded as -1.792%. Further, the CMS %inh in the assay with CMS came to 4.762%.
In the case of `CCCCC(=O)N(Cc1ccc(-c2ccccc2-c2nnn[nH]2)cc1)[C@H](C(=O)O)C(C)C` [SJ000286083-3], the CMK %inh in the assay with CMK (CMK %inh, 10 µM) is -2.006%. Also, in the assay on M07e (M07e %inh, 10 µM), the M07e %inh was -3.413%. Moreover, the CHRF288-11 %inh in the assay on CHRF288-11 (CHRF288-11 %inh, 10 µM) stood at 2.31%. Besides, the MV4-11 %inh in the assay with MV4-11 (MV4-11 %inh, 10 µM) is -0.8771%. For the same molecule, the MOLM-13 %inh in the assay on MOLM-13 (MOLM-13 %inh, 10 µM) is reported as -0.1457%. For the same molecule, the U937 %inh in the assay with U937 (U937 %inh, 10 µM) turned out to be 1.517%. Besides, the ML-2 %inh in the assay on ML-2 (ML-2 %inh, 10 µM) was 1.672%. In the assay on CMS (CMS %inh, 10 µM), the CMS %inh is given as 1.896%.
As to `Cc1nc2sc3c(N)ncnc3c2c(C)c1C` [SJ000581052-1], the CMK %inh in the assay with CMK is -9.059%. Besides, the M07e %inh with M07e turned out to be 0.5709%. Further, in the assay with CHRF288-11, the CHRF288-11 %inh is listed as 5.518%. The MV4-11 %inh in the assay with MV4-11 was -2.527%. In addition, the MOLM-13 %inh in the assay on MOLM-13 is 0.3678%. Moreover, in the assay on U937, the U937 %inh was determined as 1.552%. In addition, the ML-2 %inh in the assay with ML-2 turned out to be 0.8474%. The CMS %inh in the assay with CMS came out at 0.007081%.
Turning to `Fc1ccc(-c2ncn(C3CCNCC3)c2-c2ccnc(Oc3ccc(Oc4ccccc4)cc3)n2)cc1` [SJ000573126-1, JB27026-104B1], the CMK %inh in the assay with CMK is reported as 18.72%. For the same molecule, the M07e %inh in the assay on M07e amounted to 10.64%. Also, the CHRF288-11 %inh in the assay on CHRF288-11 is listed as 38.59%. For the same molecule, the MV4-11 %inh in the assay on MV4-11 is 29.08%. In the assay on MOLM-13, the MOLM-13 %inh came to 28.44%. Further, the U937 %inh in the assay on U937 was 16.46%. Further, in the assay on ML-2, the ML-2 %inh is 34.19%. Besides, the CMS %inh with CMS turned out to be 2.898%.
Turning to `NCC1(CC(=O)O)CCCCC1` [SJ000287210-5, GABAPENTIN], the CMK %inh with CMK is given as 0.3533%. In the assay on M07e, the M07e %inh was -2.786%. The CHRF288-11 %inh with CHRF288-11 was -2.43%. In addition, the MV4-11 %inh in the assay on MV4-11 is on record as 5.813%. The MOLM-13 %inh in the assay on MOLM-13 was found to be 0.8376%. In addition, in the assay with U937, the U937 %inh was -1.755%. Moreover, the ML-2 %inh in the assay on ML-2 was -3.023%. Besides, the CMS %inh with CMS is -2.432%.
Regarding `CC=CC1=C(C(=O)O)N2C(=O)[C@@H](NC(=O)[C@H](N)c3ccc(O)cc3)[C@H]2SC1` [SJ000565172-2, CEFPROZIL], the CMK %inh in the assay on CMK (CMK %inh, 10 µM) was found to be 1.641%. In addition, the M07e %inh with M07e (M07e %inh, 10 µM) was -4.985%. For the same molecule, in the assay on CHRF288-11 (CHRF288-11 %inh, 10 µM), the CHRF288-11 %inh was -7.818%. In addition, the MV4-11 %inh in the assay on MV4-11 (MV4-11 %inh, 10 µM) is given as 1.013%. The MOLM-13 %inh with MOLM-13 (MOLM-13 %inh, 10 µM) is given as 0.07702%. Also, in the assay on U937 (U937 %inh, 10 µM), the U937 %inh is given as -2.74%. Also, the ML-2 %inh in the assay on ML-2 (ML-2 %inh, 10 µM) is reported as -1.058%. The CMS %inh in the assay on CMS (CMS %inh, 10 µM) is -3.774%.
With `O=C(Nc1n[nH]c2nc(-c3ccc(O)cc3)c(Br)cc12)C1CC1` [SJ000573153-1, AN100368-079A1], the CMK %inh with CMK worked out at 121.4%. Moreover, the M07e %inh with M07e was determined as 20.28%. Also, in the assay with CHRF288-11, the CHRF288-11 %inh is on record as 61.88%. Also, in the assay with MV4-11, the MV4-11 %inh was 59.64%. For the same molecule, the MOLM-13 %inh in the assay on MOLM-13 worked out at 85.66%. For the same molecule, in the assay with U937, the U937 %inh was 31.9%. The ML-2 %inh in the assay with ML-2 worked out at 13.84%. Besides, the CMS %inh in the assay with CMS was found to be 105%.
Regarding `N#Cc1ccc(C(=O)c2cnn(-c3ccc(F)cc3)c2N)cc1` [SJ000580987-1], in the assay with CMK, the CMK %inh is -2.255%. Moreover, the M07e %inh in the assay with M07e was -1.432%. In addition, the CHRF288-11 %inh in the assay on CHRF288-11 is -3.381%. Moreover, the MV4-11 %inh in the assay on MV4-11 was -4.232%. Moreover, in the assay with MOLM-13, the MOLM-13 %inh was -1.146%. Besides, the U937 %inh in the assay with U937 amounted to 0.0125%. Besides, in the assay with ML-2, the ML-2 %inh is recorded as -0.9573%. The CMS %inh with CMS stood at 0.4553%.
In the case of `CCc1ccc(Oc2nccc(-c3c(-c4ccc(F)cc4)ncn3C3CCNCC3)n2)cc1` [SJ000573353-1, JB42215-197B1], the CMK %inh in the assay on CMK was 9.775%. For the same molecule, the M07e %inh with M07e was 7.09%. Besides, the CHRF288-11 %inh in the assay with CHRF288-11 was 58.08%. Further, in the assay on MV4-11, the MV4-11 %inh is listed as 7.571%. In the assay on MOLM-13, the MOLM-13 %inh is 6.147%. Further, the U937 %inh in the assay with U937 was determined as 8.087%. Also, the ML-2 %inh in the assay with ML-2 was determined as 3.582%. The CMS %inh in the assay on CMS stood at 2.88%.
